Tested on: murine fibrosarcomas (RIF-1 cells)
Assay: Tumor growth delay (tumor volume quadrupling time) of RIF-1 fibrosarcomas in C3H mice
Type: in vivo
Details: Dianhydrogalactitol 10 mg/kg, Cisplatin 4 mg/kg; for Delay (median TVQT of treated group minus control group) / TVQT/CTVQT (ratio of TVQT of treated tumor over untreated control) / Median (TVQT): RIF-1 tumors in C3H mice, i.p., combination 10 → 4 mg/kg (30 min apart); for TVQT/CTVQT (ratio of TVQT of treated tumor over untreated control): control 1.0; for Median (TVQT): control 6.3; for Mean TVQT ± S.E. (tumor volume quadrupling time): RIF-1 tumors intradermal in female C3H mice, single i.p. injection, combination 10 → 4 mg/kg (cisplatin 30 min after dianhydrogalactitol), 4 mice per group, untreated control 6.3 ± 0.3
Procedure: Transplantable experimental murine fibrosarcomas (2×10^5 RIF-1 cells) were grown intradermally in the flanks of 3 month old female C3H mice (Charles River, Hollister, Calif.). When the tumors reached a volume of approximately 100 mm^3, the mice were randomly assigned to each experimental group (4 mice per group).
The experimental compositions were prepared as described in Table 1.
Dianhydrogalactitol was obtained from NCI and was made to the appropriate concentration in DMSO. Cisplatin (David Bull Laboratories- Mulgrave, Australia, lot. 5201844x) was made to the appropriate concentration in water for injection. The compositions were injected systemically (i.e., intraperitoneally, i.p.), in a volume of 100 microliters. For the treatment of group 3, dianhydrogalactitol, was injected 30 minutes prior to the injection of cisplatin. After treatment, the growth of the tumors was monitored three times per week by caliper measurements of three perpendicular diameters of the tumor and calculation of tumor volume from the formula: […]
where D1-3 are the diameters in mm of the three perpendicular axes.
The tumors were followed until they reached a size of four times their day zero treatment volume (TVQT), or up to 30 days after treatment, whichever came first. The data is expressed as the “tumor volume quadrupling time” (TVQT) mean and as the “delay.” Mean TVQT is the mean days required for individual tumors to grow to four times the tumor volume at the initial treatment day. The “delay” is the median of days required for a tumor to grow to four times the mean size of the treated group, minus the median of days required to grow to four times the mean size of the control group. The data is also expressed as the ratio of the tumor volume quadrupling time of the treated tumor over the untreated control group (TVQT/CTVQT). Increasing values of this ratio indicate increased antitumor response.

| Structure (SMILES) | Delay (median TVQT of treated group minus control group) | TVQT/CTVQT (ratio of TVQT of treated tumor over untreated control) | Median (TVQT) | Mean TVQT ± S.E. (tumor volume quadrupling time) |
| --- | --- | --- | --- | --- |
| OC(C1CO1)C(O)C1CO1 (centres unmarked) [Dianhydrogalactitol, 1,2:5,6-Dianhydrogalactitol] | 5.12 days | 1.7 | 11.4 days | 10.9 ± 0.8 days |
| N.N.[Cl][Pt][Cl] [Cisplatin, cis-diamminedichloroplatinum II] | 1.45 days | 1.2 | 7.7 days | 7.4 ± 0.3 days |
